Test results published in PMC11310889, “Ribosomal translation of fluorinated non-canonical amino acids for de novo biologically active fluorinated macrocyclic peptides” (Chemical Science, 2024).

Legend:
Type in all cases: cell-based, Escherichia coli
E. coli W3110 [1] = assay: Propidium iodide (PI) assay of membrane permeability; details: E. coli W3110 logarithmic-phase, 15 min treatment with 5 μM peptide, PI 25 μg/mL 15 min (Fig. 5A)
Procedure: Propidium Iodide (PI) assay
Thaw the previously preserved E. coli W3110 cells from the -80 °C freezer. Scrape a small amount and inoculate it into 1 mL of LB liquid medium. Culture overnight in a 37°C shaker. Next day, inoculate the strain into fresh LB liquid medium at a 1:100 ratio and incubate at 37 °C until the OD600 reaches approximately 0.47 to 0.53. Take 100 μL of the E. coli W3110 cells and centrifuge for 2 min at 13,000 rpm. Discard the supernatant. For the untreated group, resuspend the cells in 100 μL of PBS. For the peptide treatment group, resuspend the cells in 99 μL of ddH2O and add 1 […]
μL of 0.5 mM of the different peptides. Mix thoroughly and let react for 15 min. After the treatment, take 80 μL of each sample and incubate with PI at a final concentration of 25 μg/mL for 15 min.
After incubation, wash the samples with the same amount of PBS, centrifuge, and resuspend at a 10-fold concentration. Observe the images using a Nikon Eclipse Ci-L Plus microscope. […]
(§1) Incubate overnight in a 37°C shaker. […]
Centrifuge again at
6100g for 10 min, discard the supernatant, and add 500 μL of ddH2O containing 2.5% glutaraldehyde. Resuspend and fix the cells overnight at 4°C. Centrifuge at 6100g for 10 min, remove the supernatant, and wash twice with ddH2O, letting it stand for 15 min each time, followed by centrifugation at 6100g for 10 min. Discard the supernatant. Dehydrate the sample with ethanol at concentration gradients of 30%, 60%, and 90%, without resuspension, centrifuging at 6100g for […]

E. coli W3110 [2] = assay: Protein leakage assay; details: E. coli W3110, 5 μM peptide, 15 min, pellet analysed by SDS-PAGE, compared to R9-treated sample (Fig. S10)
Procedure: Thaw the previously preserved E. coli W3110 cells from the -80 °C freezer. Scrape a small amount and inoculate it into 1 mL of LB liquid medium. Incubate overnight in a 37°C shaker. Next day, transfer the culture to fresh LB liquid medium at a 1:100 inoculation ratio and incubate at 37 °C until the OD600 reaches approximately 0.47 to 0.53. Collect 300 μL of the E. coli W3110 cells and centrifuge for 2 min at 13,000 rpm, discarding the supernatant afterward. Resuspend the untreated group in 300 μL of PBS, and the peptide treatment group in 297 μL of ddH2O. Add 3 μL of 0.5 mM different peptides to the treatment group, mix well, and allow to react for 15 min. After the treatment, resuspend all samples in 15 μL of 6×SDS loading buffer and 15 μL of 10% SDS. All samples were heated at 99.9°C for 15 min, followed by 10% SDS-PAGE analysis and staining with Coomassie brilliant blue R250. […]
as §1

E. coli W3110 [3] = assay: Scanning electron microscopy of cell morphology; details: E. coli W3110 logarithmic-phase, 4 h treatment at 2 μM and 5 μM (Fig. 5B, S11)
Procedure: Thaw the previously preserved E. coli W3110 cells from the -80 °C freezer. […]
Scanning electron microscopy
Thaw the previously preserved E. coli W3110 cells from the -80°C freezer. Scrape a small amount and inoculate it into 1 mL of LB liquid medium. Incubate overnight in a 37°C shaker. The next day, inoculate the strain into fresh LB liquid medium at a 1:100 ratio and incubate at 37°C until the OD600 reaches approximately 0.47 to 0.53. Take 500 μL of E. coli W3110 cells, centrifuge for 10 min at 4000 rpm, and discard the supernatant. Resuspend the cells in 500 μL of PBS, then centrifuge again at 4000 rpm for 10 min and discard the supernatant. Dissolve various macrocyclic peptides in DMSO and dilute to the required concentration. Resuspend the untreated group in 500 μL of PBS.
For the peptide treatment group, resuspend in 495 μL of ddH2O, add 5 μL of 0.2 mM or 0.5 mM peptides, mix well, and let react for 4 h.
After the treament, spot 4 μL of the sample on plates. Perform the first ten-fold dilution and mix, then continue with the second to fifth ten-fold dilutions. Incubate the plates inverted overnight in a 37°C incubator. Scan and count the colonies. For the remaining 492 μL, centrifuge at 6100g for 10 min, discard the supernatant, add 500 μL of ddH2O, and let it stand for 15 min. Centrifuge again at 6100g for 10 min, discard the supernatant, and add 500 μL of ddH2O containing 2.5% glutaraldehyde. Resuspend and fix the cells overnight at 4°C. Centrifuge at 6100g for 10 min, remove the supernatant, and wash twice with ddH2O, letting it stand for 15 min each time, followed by centrifugation at 6100g for 10 min. Discard the supernatant. Dehydrate the sample with ethanol at concentration gradients of 30%, 60%, and 90%, without resuspension, centrifuging at 6100g for […]
10 min and discarding the supernatant after each step. Finally, use 100% ethanol, rest for 15 min, centrifuge at 6100g for 10 min, discard the supernatant, and repeat with 100% ethanol, leaving about 10 μL. Then the critical point was dried and sprayed with gold, and the images were observed by […]
Prediction of binding sites between peptides and the BAM complex
Firstly, the fpocket algorithm was used, a rapid method for pocket prediction based on the three-dimensional structure of BAM complex (PDB ID: 5AYW). This method establishes a grid surrounding the protein, positioning alpha spheres on grid points devoid of spatial conflicts with protein atoms, subsequently utilizing a clustering algorithm to ascertain whether these regions constitute potential binding pockets. Alpha spheres were designated with radii ranging from 3.4Å to 6.2Å, with a prerequisite of at least 15 alpha spheres for a region to be considered a pocket. […]
PepNN evaluated each amino acid for its potentiality as a peptide binding site. […]

For “Ac-DYLIWYSRSHPFRVCGS(Acp)RRRRRRRRR-NH2 (sidechain bridge or staple) [BAM-D1-R9, BAM-D1 conjugated with cell-penetrating peptide R9]”, the “PI red fluorescence (cell membrane permeability)” value (E. coli W3110 [1]) was “notable red fluorescence intensity”, the cellular protein leakage (E. coli W3110 [2]) was “partial cellular protein leakage” and the “morphological changes by scanning electron microscopy” value (E. coli W3110 [3]) was “severe damage in the cell shape and even lysis”.
